Results reported in US12290654B2, “Using alternating electric fields to increase permeability of the blood brain barrier” (Novocure GmbH, priority 2018, dated 2025).

Assays:
[1] = system: blood brain barrier (rat brain); experiment: DCE-MRI contrast agent accumulation in rat brain; type: in vivo, rats
Experimental: Yet another set of in vivo experiments was performed using Dynamic Contrast Enhanced MRI (DCE-MRI) with intravenous injection of Gadolinium contrast agent (Gd-DTPA, Magnetol, MW 547). In these experiments, test rats were treated with 100 kHz alternating electric fields for 72 h, and control rats were not treated with alternating electric fields for the same period of time. After this 72 h period, the alternating electric field was turned off, the rats were anesthetized, and a series of 60 T1w MRI scans (each of the scans having a duration of 28 seconds) was acquired. The gadolinium contrast agent was injected into the rat's tail vein during the 7th of these 60 scans.
The image analysis for each rat included (1) determining a baseline for each voxel by calculating the mean of the first six T1w MRI scans for each voxel (i.e., the scans prior to the injection of the gadolinium); (2) computing voxel by voxel, the percent signal change (i.e., gadolinium accumulation) over time relative to the baseline; (3) segmenting the brain into anterior, middle, and posterior segments; (4) generating for each of the three segments the mean percent signal change with respect to the baseline over all the voxels in the respective segment and then (5) averaging 4 consecutive time points (i.e. 4 scans) together. Finally, the data from all of the rats within any given group were averaged together. […]

[2] = system: blood brain barrier (rat brain); experiment: Evans Blue accumulation in rat brain after alternating electric fields; type: in vivo, rats
Text: A set of in vivo experiments on rats was also run to quantify the increase in vessel permeability caused by exposure to the alternating electric fields. These experiments used Evans Blue (EB) dye, which is an azo dye that has a very high affinity for serum albumin (molecule size ˜69 kDa). Because of its large molecule size, serum albumin will ordinarily not be able to get past the BBB.
This was accomplished by shaving each rat's head, positioning a first pair of capacitively coupled electrodes on the top and bottom of the rat's head, and positioning a second pair of capacitively coupled electrodes on the left and right sides of the rat's head. A 100 kHz AC voltage was then applied between the top and bottom electrodes for 1 second, followed by a 100 kHz AC voltage applied between the right and left electrodes for 1 second, in a repeating sequence.
Under the conditions indicated in Table 1 and for the times indicated on Table 1, EB was injected intravenously into the tail vein under anesthesia (Once injected, EB immediately binds to Albumin), and the EB was allowed to circulate for 2 hours in all cases. The following steps were then performed: (a) intracardiac perfusion with saline; (b) brains are sliced in four pieces with a brain slicer; (c) pieces were photographed to localize staining and weighted; (d) EB extraction after tissue homogenization with TCA 50% (1:3) and centrifuge and (e) EB quantification at 610 nm. Results are given as μg EB per g tissue.
During the experiment, two animals from group 2 and one animal from group 4 were excluded (disrupted treatment, failure to inject EB into the tail vein). There were no differences between the animals treated with alternating electric fields (groups 1 and 2) and therefore these animals were grouped together. Similarly, there were no differences between sham heat and control animals (groups 3 and 4) and therefore these animals were grouped together.
EB accumulation in these four specific sections was then measured. In addition, a computer simulation was performed to determine the field strength in each of these four sections. […]

average EB accumulation in the rat brain, averaged over all four sections 1-4 ([2]; 100 kHz fields 72 hours vs sham heat/control, p<0.05)	EB accumulation, sections 1, 2 (frontal cerebrum) ([2]; 100 kHz fields 72 h vs sham heat/control, EB i.v., circulated 2 hours, sections where field strength was highest)	Compound	contrast agent accumulation in the brain tissue (DCE-MRI percent signal change) ([1]; 100 kHz fields 72 h (n=6) vs control rats (n=3), most pronounced in posterior brain)	contrast agent accumulation in the brain tissue (DCE-MRI percent signal change) ([1]; 100 kHz fields 72 hours followed by 96 hours without fields (n=7) vs control+96h (n=3))	EB accumulation, more posterior sections (3, 4) ([2]; 100 kHz fields 72 h vs sham heat/control, EB i.v., circulated 2 hours, sections where field strength was lower)
–	–	O=C([O-])CN(CCN(CC(=O)[O-])CC(=O)O)CCN(CC(=O)[O-])CC(=O)O.[Gd+3] [contrast agent, Gd-DTPA]	significantly higher	not significantly different	–
higher accumulation	statistically significant increase	Cc1cc(-c2ccc(/N=N/c3ccc4c(S(=O)(=O)O)cc(S(=O)(=O)O)c(N)c4c3O)c(C)c2)ccc1/N=N/c1ccc2c(S(=O)(=O)O)cc(S(=O)(=O)O)c(N)c2c1O [EB, Evans Blue]	–	–	smaller increase (that was not statistically significant)
